Results as given in BindingDB's records for patent US20250353858 (BEONE MEDICINES I GMBH, 2025).

Columns and labels:
[1] = biological target: Diacylglycerol kinase zeta (Homo sapiens, UniProt Q13574); experiment: Biochemical DGK IC50 Assay
Experimental: (§1) Enzymatic reactions of DGKζ, DGKα and DGKδ were performed using ADP-Glo assay with lipid micelle substrate. […] Full length DGKα (D21-10BG, SignalChem) and full length DGKδ (D23-10G, SignalChem) were purchased. […] The resulted product was resuspended in buffer containing 25 mM HEPES pH 7.0, 0.5 mM EDTA and 160 mM Octyl β-D glucopyranoside by vigorous mixing and ultrasonic (IID, Scientz).Final concentration in reaction Enzyme Enzyme (nM) ATP (μM) DAG (μM)DGKα 7.5 140 80DGKδ 10 140 80DGKζ 0.5 140 80The inhibition activities testing for the compound disclosed herein were carried out at room temperature in assay buffer containing 50 mM HEPES, 10 mM MgCl2, 0.01% BSA, 0.1 mM Na3VO4, 0.005% Tween-20 and 0.01 mM CaCl2. […] 3 μL 2× enzyme solution was added to wells. […] After 1 hour reaction, 5 μL ADP-Glo reagent (Promga V9101) was added and incubated for 40 minutes. 10 μL Kinase Detection reagent was added and incubated for 30 minutes. Luminescence was measured on a microplate reader (PHERAstar FSX, BMG labtech). The IC50s are calculated based on inhibition of enzyme activity in the presence of increasing concentrations of compounds.

[2] = biological target: Diacylglycerol kinase alpha (Homo sapiens, UniProt P23743); experiment: Biochemical DGK IC50 Assay
Experimental: as §1

Sequence of Diacylglycerol kinase alpha (P23743 whole entry): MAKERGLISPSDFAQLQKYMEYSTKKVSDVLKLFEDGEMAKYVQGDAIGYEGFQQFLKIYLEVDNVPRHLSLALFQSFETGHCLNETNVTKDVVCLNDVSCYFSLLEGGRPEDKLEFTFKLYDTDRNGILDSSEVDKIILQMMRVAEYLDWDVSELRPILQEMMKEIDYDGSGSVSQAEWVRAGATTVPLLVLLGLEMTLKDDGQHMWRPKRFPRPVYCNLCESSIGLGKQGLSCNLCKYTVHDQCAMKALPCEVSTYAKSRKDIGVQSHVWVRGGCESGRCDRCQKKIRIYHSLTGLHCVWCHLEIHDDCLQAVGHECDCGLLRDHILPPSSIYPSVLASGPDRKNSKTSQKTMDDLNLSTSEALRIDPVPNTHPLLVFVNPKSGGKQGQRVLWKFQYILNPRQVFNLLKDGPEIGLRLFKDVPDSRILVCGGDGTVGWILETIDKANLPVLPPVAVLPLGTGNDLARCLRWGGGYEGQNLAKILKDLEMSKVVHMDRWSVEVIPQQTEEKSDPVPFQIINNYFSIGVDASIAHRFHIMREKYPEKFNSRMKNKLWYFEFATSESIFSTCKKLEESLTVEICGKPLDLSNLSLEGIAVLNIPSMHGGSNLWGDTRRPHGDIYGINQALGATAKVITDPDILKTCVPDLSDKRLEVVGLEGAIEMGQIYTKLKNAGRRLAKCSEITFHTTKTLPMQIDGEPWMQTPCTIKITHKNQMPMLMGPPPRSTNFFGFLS
Sequence of Diacylglycerol kinase zeta (Q13574 as listed by the source): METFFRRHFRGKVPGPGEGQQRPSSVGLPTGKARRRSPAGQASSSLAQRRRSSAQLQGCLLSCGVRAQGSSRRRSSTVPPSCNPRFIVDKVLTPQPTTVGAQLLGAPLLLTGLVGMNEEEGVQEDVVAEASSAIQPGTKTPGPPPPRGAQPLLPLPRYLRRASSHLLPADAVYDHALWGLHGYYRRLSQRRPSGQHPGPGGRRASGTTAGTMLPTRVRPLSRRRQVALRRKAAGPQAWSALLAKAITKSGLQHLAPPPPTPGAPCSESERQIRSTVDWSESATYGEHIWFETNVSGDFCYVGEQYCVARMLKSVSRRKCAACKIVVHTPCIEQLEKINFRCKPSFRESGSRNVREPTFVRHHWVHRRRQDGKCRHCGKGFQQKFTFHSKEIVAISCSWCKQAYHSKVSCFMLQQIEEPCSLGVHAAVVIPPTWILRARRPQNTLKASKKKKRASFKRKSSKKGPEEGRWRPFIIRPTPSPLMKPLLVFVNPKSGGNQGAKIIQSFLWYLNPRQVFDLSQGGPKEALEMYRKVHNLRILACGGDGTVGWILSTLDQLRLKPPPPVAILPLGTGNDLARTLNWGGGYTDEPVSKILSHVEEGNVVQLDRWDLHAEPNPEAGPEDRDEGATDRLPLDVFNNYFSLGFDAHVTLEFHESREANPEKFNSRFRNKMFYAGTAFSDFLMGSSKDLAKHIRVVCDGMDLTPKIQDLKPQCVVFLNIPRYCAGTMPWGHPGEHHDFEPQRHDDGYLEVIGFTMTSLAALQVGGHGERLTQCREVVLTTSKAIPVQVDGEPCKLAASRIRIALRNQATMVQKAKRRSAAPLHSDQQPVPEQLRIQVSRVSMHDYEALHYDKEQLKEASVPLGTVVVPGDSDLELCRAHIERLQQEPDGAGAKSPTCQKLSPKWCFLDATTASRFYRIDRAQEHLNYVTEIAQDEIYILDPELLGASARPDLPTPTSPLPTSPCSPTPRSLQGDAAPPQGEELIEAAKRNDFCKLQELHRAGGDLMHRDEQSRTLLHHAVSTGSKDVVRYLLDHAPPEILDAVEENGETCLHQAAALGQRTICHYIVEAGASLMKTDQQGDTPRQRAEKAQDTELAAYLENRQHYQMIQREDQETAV

IC50 [1] | IC50 [2] | Structure (SMILES)
0.075 µM | 61.5 µM | CC(c1ccc2c(n1)OC(C)(C)CO2)N1C[C@H](C)N(c2cc(=O)n(C)c3cn(CC#N)nc23)C[C@H]1C (stereo partly drawn) [2-(7-((2S,5R)-4-(1-(3,3-dimethyl-2,3-dihydro-[1,4]dioxino[2,3-b]pyridin-6-yl)ethyl)-2,5-dimethylpiperazin-1-yl)-4-methyl-5-oxo-4,5-dihydro-2H-pyrazolo[4,3-b]pyridin-2-yl)acetonitrile]
– | > 10 µM | C[C@@H]1CC(c2cc(=O)n(C)c3cc(CC#N)nn23)CCN1[C@H](C)c1ccc2nccnc2c1 (stereo partly drawn) [US20250353858, Compound A33b]
